Molecular target: T1, SHP2 protein (Homo sapiens, UniProt Q06124)
T1 sequence (Q06124 1-593): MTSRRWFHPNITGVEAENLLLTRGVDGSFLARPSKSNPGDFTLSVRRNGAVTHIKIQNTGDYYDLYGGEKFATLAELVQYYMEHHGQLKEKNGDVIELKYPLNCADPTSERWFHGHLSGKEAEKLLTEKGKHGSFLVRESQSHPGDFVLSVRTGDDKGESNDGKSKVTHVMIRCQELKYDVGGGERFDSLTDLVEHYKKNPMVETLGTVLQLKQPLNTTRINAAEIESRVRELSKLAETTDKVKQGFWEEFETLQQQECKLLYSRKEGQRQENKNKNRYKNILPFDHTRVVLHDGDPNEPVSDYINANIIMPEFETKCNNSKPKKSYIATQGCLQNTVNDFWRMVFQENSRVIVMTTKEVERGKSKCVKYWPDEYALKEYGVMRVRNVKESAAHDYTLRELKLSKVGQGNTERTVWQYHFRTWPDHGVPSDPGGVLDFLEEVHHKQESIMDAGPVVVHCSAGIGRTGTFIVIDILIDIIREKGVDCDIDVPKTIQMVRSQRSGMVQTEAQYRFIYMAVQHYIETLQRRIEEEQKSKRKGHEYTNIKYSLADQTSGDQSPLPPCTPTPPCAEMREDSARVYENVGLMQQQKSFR
Assay: Measurement of SHP2 protein degradation in NCI-H358 cells (western blotting)
Format: cell-based
Design: endogenous in cells; host or cells: NCI-H358
Conditions: harvested after 24 hours
Method in brief: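 H358 cells in RPMI1640/25 mM HEPES/10% FBS, cultured 24 h, then exposed to compound at final 0.001, 0.01 and 0.1 μM for 24 h against a DMSO control. Lysates were normalised for protein by BCA and probed by western blot for SHP2, with GAPDH as loading control.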

SHP2% degradation (0.01 μM) [%]	SHP2% degradation (0.1 μM) [%]	Structure (SMILES)
94.4	98.0	CC(=O)N[C@H](C(=O)N1C[C@H](O)C[C@H]1C(=O)NCc1ccc(-c2scnc2C)cc1OC1CCN(C(=O)C2CCN(c3nccc(Sc4cnc(N5CCC6(CC5)CO[C@@H](C)[C@H]6N)cn4)c3Cl)CC2)CC1)C(C)(C)C [Example 77, (2S,4R)-1-((S)-2-acetamido-3,3-dimethylbutanoyl)-N-(2-((1-(1-(4-((5-((3S,4S)-4-amino-3-methyl-2-oxa-8-azaspiro[4.5]decan-8-yl)pyrazin-2-yl)thio)-3-chloropyridin-2-yl)piperidine-4-carbonyl)piperidin-4-yl)oxy)-4-(4-methylthiazol-5-yl)benzyl)-4-hydroxypyrrolidine-2-carboxamide]
99.6	99.5	CC(=O)N[C@H](C(=O)N1C[C@H](O)C[C@H]1C(=O)NCc1ccc(-c2scnc2C)cc1OC1CCN(C(=O)C2CCN(c3nccc(Sc4cnc(N5CCC6(CC5)CO[C@@H](C)[C@H]6N)c(CO)n4)c3Cl)CC2)CC1)C(C)(C)C [Example 80, (2S,4R)-1-((S)-2-acetamido-3,3-dimethylbutanoyl)-N-(2-((1-(1-(4-((5-((3S,4S)-4-amino-3-methyl-2-oxa-8-azaspiro[4.5]decan-8-yl)-6-(hydroxymethyl)pyrazin-2-yl)thio)-3-chloropyridin-2-yl)piperidine-4-carbonyl)piperidin-4-yl)oxy)-4-(4-methylthiazol-5-yl)benzyl)-4-hydroxypyrrolidine-2-carboxamide]
98.3	99.9	CC(=O)N[C@H](C(=O)N1C[C@H](O)C[C@H]1C(=O)NCc1ccc(-c2scnc2C)cc1OC1CCN(C(=O)C2CCN(c3cccc(Sc4cnc(N5CCC6(CC5)CO[C@@H](C)[C@H]6N)c(CO)n4)c3Cl)CC2)CC1)C(C)(C)C [Example 85, (2S,4R)-1-((S)-2-acetamido-3,3-dimethylbutanoyl)-N-(2-((1-(1-(3-((5-((3S,4S)-4-amino-3-methyl-2-oxa-8-azaspiro[4.5]decan-8-yl)-6-(hydroxymethyl)pyrazin-2-yl)thio)-2-chlorophenyl)piperidine-4-carbonyl)piperidin-4-yl)oxy)-4-(4-methylthiazol-5-yl)benzyl)-4-hydroxypyrrolidine-2-carboxamide]
97.0	99.9	Cc1ncsc1-c1ccc(CNC(=O)[C@@H]2C[C@@H](O)CN2C(=O)[C@@H](NC(=O)CC#N)C(C)(C)C)c(OC2CCN(C(=O)C3CCN(c4nccc(Sc5cnc(N6CCC7(CC6)CO[C@@H](C)[C@H]7N)c(CO)n5)c4Cl)CC3)CC2)c1 [Example 88, (2S,4R)—N-(2-((1-(1-(4-((5-((3S,4S)-4-amino-3-methyl-2-oxa-8-azaspiro[4.5]decan-8-yl)-6-(hydroxymethyl)pyrazin-2-yl)thio)-3-chloropyridin-2-yl)piperidine-4-carbonyl)piperidin-4-yl)oxy)-4-(4-methylthiazol-5-yl)benzyl)-1-((S)-2-(2-cyanoacetamido)-3,3-dimethylbutanoyl)-4-hydroxypyrrolidine-2-carboxamide]
98.8	99.9	Cc1ncsc1-c1ccc(CNC(=O)[C@@H]2C[C@@H](O)CN2C(=O)[C@@H](NC(=O)CO)C(C)(C)C)c(OC2CCN(C(=O)C3CCN(c4nccc(Sc5cnc(N6CCC7(CC6)CO[C@@H](C)[C@H]7N)c(CO)n5)c4Cl)CC3)CC2)c1 [Example 89, (2S,4R)—N-(2-((1-(1-(4-((5-((3S,4S)-4-amino-3-methyl-2-oxa-8-azaspiro[4.5]decan-8-yl)-6-(hydroxymethyl)pyrazin-2-yl)thio)-3-chloropyridin-2-yl)piperidine-4-carbonyl)piperidin-4-yl)oxy)-4-(4-methylthiazol-5-yl)benzyl)-4-hydroxy-1-((S)-2-(2-hydroxyacetamido)-3,3-dimethylbutanoyl)pyrrolidine-2-carboxamide]

More lines, now with the values behind:

Structure (SMILES)	SHP2% degradation (0.01 μM) [%]	SHP2% degradation (0.1 μM) [%]
CC(=O)N[C@H](C(=O)N1C[C@H](O)C[C@H]1C(=O)NCc1ccc(-c2scnc2C)cc1OC1CCN(C(=O)C2CCN(c3nccc(Sc4cnc(N5CCC(C)(CN)CC5)c(CO)n4)c3Cl)CC2)CC1)C(C)(C)C [Example 78, (2S,4R)-1-((S)-2-acetamido-3,3-dimethylbutanoyl)-N-(2-((1-(1-(4-((5-(4-(aminomethyl)-4-methylpiperidin-1-yl)-6-(hydroxymethyl)pyrazin-2-yl)thio)-3-chloropyridin-2-yl)piperidine-4-carbonyl)piperidin-4-yl)oxy)-4-(4-methylthiazol-5-yl)benzyl)-4-hydroxypyrrolidine-2-carboxamide]	98.0	99.4
CC(=O)N[C@H](C(=O)N1C[C@H](O)C[C@H]1C(=O)NCc1ccc(-c2scnc2C)cc1OC1CCN(C(=O)C2CCN(c3nccc(Sc4cnc(N5CCC(C)(N)CC5)c(CO)n4)c3Cl)CC2)CC1)C(C)(C)C [Example 79, (2S,4R)-1-((S)-2-acetamido-3,3-dimethylbutanoyl)-N-(2-((1-(1-(4-((5-(4-amino-4-methylpiperidin-1-yl)-6-(hydroxymethyl)pyrazin-2-yl)thio)-3-chloropyridin-2-yl)piperidine-4-carbonyl)piperidin-4-yl)oxy)-4-(4-methylthiazol-5-yl)benzyl)-4-hydroxypyrrolidine-2-carboxamide]	96.1	99.9
CC(=O)N[C@H](C(=O)N1C[C@H](O)C[C@H]1C(=O)NCc1ccc(-c2scnc2C)cc1OC1CCN(C(=O)C2CCN(c3nccc(Sc4nc(CO)c(N5CCC(C)(CN)CC5)nc4C)c3Cl)CC2)CC1)C(C)(C)C [Example 81, (2S,4R)-1-((S)-2-acetamido-3,3-dimethylbutanoyl)-N-(2-((1-(1-(4-((5-(4-(aminomethyl)-4-methylpiperidin-1-yl)-6-(hydroxymethyl)-3-methylpyrazin-2-yl)thio)-3-chloropyridin-2-yl)piperidine-4-carbonyl)piperidin-4-yl)oxy)-4-(4-methylthiazol-5-yl)benzyl)-4-hydroxypyrrolidine-2-carboxamide]	85.6	99.6
CC(=O)N[C@H](C(=O)N1C[C@H](O)C[C@H]1C(=O)NCc1ccc(-c2scnc2C)cc1OC1CCN(C(=O)C2CCN(c3cccc(Sc4cnc(N5CCC(C)(CN)CC5)cn4)c3Cl)CC2)CC1)C(C)(C)C [Example 82, (2S,4R)-1-((S)-2-acetamido-3,3-dimethylbutanoyl)-N-(2-((1-(1-(3-((5-(4-(aminomethyl)-4-methylpiperidin-1-yl)pyrazin-2-yl)thio)-2-chlorophenyl)piperidine-4-carbonyl)piperidin-4-yl)oxy)-4-(4-methylthiazol-5-yl)benzyl)-4-hydroxypyrrolidine-2-carboxamide]	94.9	97.4
CC(=O)N[C@H](C(=O)N1C[C@H](O)C[C@H]1C(=O)NCc1ccc(-c2scnc2C)cc1OC1CCN(C(=O)C2CCN(c3cccc(Sc4cnc(N5CCC(C)(CN)CC5)c(CO)n4)c3Cl)CC2)CC1)C(C)(C)C [Example 83, (2S,4R)-1-((S)-2-acetamido-3,3-dimethylbutanoyl)-N-(2-((1-(1-(3-((5-(4-(aminomethyl)-4-methylpiperidin-1-yl)-6-(hydroxymethyl)pyrazin-2-yl)thio)-2-chlorophenyl)piperidine-4-carbonyl)piperidin-4-yl)oxy)-4-(4-methylthiazol-5-yl)benzyl)-4-hydroxypyrrolidine-2-carboxamide]	97.8	99.7
CC(=O)N[C@H](C(=O)N1C[C@H](O)C[C@H]1C(=O)NCc1ccc(-c2scnc2C)cc1OC1CCN(C(=O)C2CCN(c3cccc(Sc4cnc(N5CCC(C)(N)CC5)c(CO)n4)c3Cl)CC2)CC1)C(C)(C)C [Example 84, (2S,4R)-1-((S)-2-acetamido-3,3-dimethylbutanoyl)-N-(2-((1-(1-(3-((5-(4-amino-4-methylpiperidin-1-yl)-6-(hydroxymethyl)pyrazin-2-yl)thio)-2-chlorophenyl)piperidine-4-carbonyl)piperidin-4-yl)oxy)-4-(4-methylthiazol-5-yl)benzyl)-4-hydroxypyrrolidine-2-carboxamide]	92.4	99.9
CC(=O)N[C@H](C(=O)N1C[C@H](O)C[C@H]1C(=O)NCc1ccc(-c2scnc2C)cc1OC1CCN(C(=O)C2CCN(c3nccc(Sc4cnc(N5CCC(C)(CN)CC5)cn4)c3Cl)CC2)CC1)C(C)C [Example 90, (2S,4R)-1-(acetyl-L-valyl)-N-(2-((1-(1-(4-((5-(4-(aminomethyl)-4-methylpiperidin-1-yl)pyrazin-2-yl)thio)-3-chloropyridin-2-yl)piperidine-4-carbonyl)piperidin-4-yl)oxy)-4-(4-methylthiazol-5-yl)benzyl)-4-hydroxypyrrolidine-2-carboxamide]	70.5	99.2

Reference: US20260144788A1, “COMPOUND FOR SHP2 PROTEIN DEGRADATION AND MEDICAL USES THEREOF” (UBIX THERAPEUTICS, INC., priority 2022, published 2026)
